Data: US8987328B2, “Esters of capsaicinoids as dietary supplements” (Trinity Laboratories, Inc., priority 2008, dated 2015)
Like-named read-outs stand apart in the source and are kept apart here.

Columns and labels:
[1] = cited from earlier work
[2] = p<0.05, cited from earlier work
[3] = i.v. administration, rats; cited from earlier work
[4] = cited from earlier work; remark: listed apart in the source
[5] = design: species or system human; details: in vivo
[6] = in vivo, po
[7] = design: species or system human; details: in vivo; remark: listed apart in the source
[8] = 30% lard diet, capsaicin 0.14% of diet
[9] = cholesterol-free diet, 4 mg per animal daily, relative to controls
[10] = diet with 0.2% cholesterol, 4 mg per animal daily

COc1cc(CNC(=O)CCCCC=CC(C)C)ccc1O [capsaicin, 8-methyl-N-vanillyl-6-nonenamide]
serum triglyceride levels ([1]; 30% lard diet, capsaicin 0.14% of diet, vs high-fat diet without capsaicin): significantly lower
levels of cholesterol [1, 8]: not affected
levels of free fatty acids [1, 8]: not affected
levels of pre-beta-lipoprotein [1, 8]: not affected
weight of perirenal adipose tissue ([1]; high-fat diet rats): reduced in a dose-dependent manner
plasma insulin levels ([2]; OGTT in dogs): elevation
blood glucose levels ([2]; at 2.5 h in OGTT, n=6, control 6.40+/−0.13): 4.91 mM
time to distribution to brain, spinal cord, liver and blood [3]: ≤ 20 min
HDL-cholesterol [4, 9]: increased significantly
LDL-cholesterol [4, 9]: increased significantly
VLDL cholesterol [4, 9]: decreased significantly
total cholesterol [4, 9]: increased significantly
serum triglyceride concentrations ([4]; cholesterol-free diet, 4 mg per animal daily): Neither drug had an effect
HDL-cholesterol [4, 10]: increased
VLDL-cholesterol [4, 10]: reduced

COc1cc(CNC(=O)CCCCCCC(C)C)ccc1O [dihydrocapsaicin]
HDL-cholesterol ([4]; in vivo): increased significantly
VLDL cholesterol ([4]; in vivo): decreased significantly
VLDL-cholesterol ([4]; in vivo): reduced
serum triglyceride concentrations ([4]; in vivo): Neither drug had an effect
triglycerides ([4]; in vivo): decreased significantly

Palmitoyl Ester of Capsaicin USP [palmitoyl-capsaicin USP]
LDL cholesterol [5]: ~110 mg/dL
cholesterol level [5]: normal level
burning or irritation in the stomach [6]: No individual complained of burning or irritation in the stomach
body weight [7]: maintained an average weight
body weight fluctuation over and under average [7]: 2-3 pounds
